Literature values, collected in patent US7872030B2, “Use of 2-[5-(4-fluorophenyl)-3-pyridylmethylaminomethyl]-chromane and its physiologically acceptable salts” (Merck Patent GmbH, priority 2001, dated 2011).

Tested on: advanced Parkinson patients
Details: cited from earlier work

SMILES: O=C1CC2(CCCC2)CC(=O)N1CCCCN1CCN(c2ncccn2)CC1 [buspirone]
- anti-dyskinetic properties: moderate anti-dyskinetic properties
